# Reference: ChEMBL document CHEMBL4387741, “Optimization of novel reversible Bruton's tyrosine kinase inhibitors identified using Tethering-fragment-based screens” (Bioorg Med Chem, 2019)
# Columns and labels:
# [1] = tested on: Tyrosine-protein kinase ABL1 (Homo sapiens), P00519 [F317I]; assay: Inhibition of human phosphorylated ABL1 F317I mutant (S229 to K512 residues) expressed in mammalian expression system at 1 uM by Kinomescan method relative to control
# [2] = target: Tyrosine-protein kinase ABL1 (Homo sapiens) (UniProt P00519); assay: Inhibition of wild-type human non-phosphorylated ABL1 (S229 to K512 residues) expressed in mammalian expression system at 1 uM by Kinomescan method relative to control
# [3] = target: Tyrosine-protein kinase ABL2 (Homo sapiens) (UniProt P42684); assay: Inhibition of wild-type human ABL2 (A248 to G542 residues) expressed in bacterial expression system at 1 uM by Kinomescan method relative to control
# [4] = target: 5'-AMP-activated protein kinase catalytic subunit alpha-2 (Homo sapiens) (UniProt P54646); assay: Inhibition of wild-type human partial length AMPK alpha2 (M1 to E306 residues) expressed in bacterial expression system at 1 uM by Kinomescan method relative to control
# [5] = target: Cyclin-dependent kinase-like 3 (Homo sapiens) (UniProt Q8IVW4); assay: Inhibition of wild-type human partial length CDKL3 (M1 to D327 residues) expressed in bacterial expression system at 1 uM by Kinomescan method relative to control
# [6] = target: Cyclin-dependent kinase-like 5 (Homo sapiens) (UniProt O76039); assay: Inhibition of wild-type human partial length CDKL5 (M1 to S337 residues) expressed in mammalian expression system at 1 uM by Kinomescan method relative to control
# [7] = target: Tyrosine-protein kinase JAK3 (Homo sapiens) (UniProt P52333); assay: Inhibition of wild-type human partial length JAK3 JH1 catalytic domain (I781 to S1124 residues) expressed in mammalian expression system at 1 uM by Kinomescan method relative to control
# [8] = target: Serine/threonine-protein kinase MARK1 (Homo sapiens) (UniProt Q9P0L2); assay: Inhibition of wild-type human partial length MARK1 (Q30 to T341 residues) expressed in bacterial expression system at 1 uM by Kinomescan method relative to control
# [9] = target: Dual specificity mitogen-activated protein kinase kinase 3 (Homo sapiens) (UniProt P46734); assay: Inhibition of wild-type human full length MEK3 (M1 to S318 residues) expressed in mammalian expression system at 1 uM by Kinomescan method relative to control
# [10] = target: Serine/threonine-protein kinase Nek7 (Homo sapiens) (UniProt Q8TDX7); assay: Inhibition of wild-type human full length NEK7 (M1 to S302 residues) expressed in bacterial expression system at 1 uM by Kinomescan method relative to control
# [11] = target: Cyclin-dependent kinase 2 homolog (Plasmodium falciparum (isolate 3D7)) (UniProt P61075); assay: Inhibition of wild-type Plasmodium falciparum full length PK5 (M1 to N288 residues) expressed in mammalian expression system at 1 uM by Kinomescan method relative to control
# [12] = tested on: Phosphatidylinositol 4,5-bisphosphate 3-kinase catalytic subunit alpha isoform (Homo sapiens), P42336 [H1047L]; assay: Inhibition of human partial length PIK3CA H1047L mutant (R108 to N1068 residues) expressed in mammalian expression system at 1 uM by Kinomescan method relative to control
# [13] = target: Phosphatidylinositol 5-phosphate 4-kinase type-2 gamma (Homo sapiens) (UniProt Q8TBX8); assay: Inhibition of wild-type human partial length PIP5K2C (M1 to A421 residues) expressed in mammalian expression system at 1 uM by Kinomescan method relative to control
# [14] = target: Serine/threonine-protein kinase D1 (Homo sapiens) (UniProt Q15139); assay: Inhibition of wild-type human partial length PRKD1 (G551 to E870 residues) expressed in bacterial expression system at 1 uM by Kinomescan method relative to control
# [15] = target: Serine/threonine-protein kinase Sgk1 (Homo sapiens) (UniProt O00141); assay: Inhibition of wild-type human partial length SGK (I60 to L431 residues) expressed in mammalian expression system at 1 uM by Kinomescan method relative to control
# [16] = target: Serine/threonine-protein kinase 33 (Homo sapiens) (UniProt Q9BYT3); assay: Inhibition of wild-type human full length STK33 (M1 to L514 residues) expressed in bacterial expression system at 1 uM by Kinomescan method relative to control
# [17] = target: Transient receptor potential cation channel subfamily M member 6 (Homo sapiens) (UniProt Q9BX84); assay: Inhibition of wild-type human partial length TRPM6 (Q1723 to I1998 residues) expressed in mammalian expression system at 1 uM by Kinomescan method relative to control
# [18] = Kinetic solubility of the compound at pH 1.5 by shake flask assay; format: physicochemical; conditions: buffer, read-out: Kinetic_solubility
# [19] = target: Cyclin-dependent kinase 2 (Homo sapiens) (UniProt P24941); assay: Inhibition of wild-type human full length CDK2 (M1 to L298 residues) expressed in bacterial expression system at 10 uM by Kinomescan method relative to control
# [20] = target: Dual specificity protein kinase CLK4 (Homo sapiens) (UniProt Q9HAZ1); assay: Inhibition of wild-type human partial length CLK4 (R135 to K481 residues) expressed in bacterial expression system at 10 uM by Kinomescan method relative to control
# [21] = target: Death-associated protein kinase 2 (Homo sapiens) (UniProt Q9UIK4); assay: Inhibition of wild-type human full length DAPK2 (M1 to S370 residues) expressed in bacterial expression system at 10 uM by Kinomescan method relative to control
# [22] = target: Insulin receptor-related protein (Homo sapiens) (UniProt P14616); assay: Inhibition of wild-type human partial length INSRR (R950 to E1278 residues) expressed in bacterial expression system at 10 uM by Kinomescan method relative to control
# [23] = tested on: Mast/stem cell growth factor receptor Kit (Homo sapiens), P10721 [A829P]; assay: Inhibition of human partial length KIT A829P mutant (I571 to D952 residues) expressed in mammalian expression system at 10 uM by Kinomescan method relative to control
# [24] = target: Mitogen-activated protein kinase kinase kinase kinase 4 (Homo sapiens) (UniProt O95819); assay: Inhibition of wild-type human partial length MAP4K4 (M1 to R310 residues) expressed in bacterial expression system at 10 uM by Kinomescan method relative to control
# [25] = tested on: Proto-oncogene tyrosine-protein kinase receptor Ret (Homo sapiens), P07949 [M918T]; assay: Inhibition of human partial length RET M918T mutant (E713 to D1014 residues) expressed in bacterial expression system at 10 uM by Kinomescan method relative to control
# [26] = target: Serine/threonine-protein kinase 36 (Homo sapiens) (UniProt Q9NRP7); assay: Inhibition of wild-type human partial length STK36 (M1 to T271 residues) expressed in bacterial expression system at 10 uM by Kinomescan method relative to control
# [27] = target: Phosphatidylinositol 3-kinase catalytic subunit type 3 (Homo sapiens) (UniProt Q8NEB9); assay: Inhibition of wild-type human partial length VPS34 (S282 to H879 residues) expressed in mammalian expression system at 10 uM by Kinomescan method relative to control
# Sequence of Tyrosine-protein kinase ABL1 (Homo sapiens) (P00519 whole entry, the tested form may be a part): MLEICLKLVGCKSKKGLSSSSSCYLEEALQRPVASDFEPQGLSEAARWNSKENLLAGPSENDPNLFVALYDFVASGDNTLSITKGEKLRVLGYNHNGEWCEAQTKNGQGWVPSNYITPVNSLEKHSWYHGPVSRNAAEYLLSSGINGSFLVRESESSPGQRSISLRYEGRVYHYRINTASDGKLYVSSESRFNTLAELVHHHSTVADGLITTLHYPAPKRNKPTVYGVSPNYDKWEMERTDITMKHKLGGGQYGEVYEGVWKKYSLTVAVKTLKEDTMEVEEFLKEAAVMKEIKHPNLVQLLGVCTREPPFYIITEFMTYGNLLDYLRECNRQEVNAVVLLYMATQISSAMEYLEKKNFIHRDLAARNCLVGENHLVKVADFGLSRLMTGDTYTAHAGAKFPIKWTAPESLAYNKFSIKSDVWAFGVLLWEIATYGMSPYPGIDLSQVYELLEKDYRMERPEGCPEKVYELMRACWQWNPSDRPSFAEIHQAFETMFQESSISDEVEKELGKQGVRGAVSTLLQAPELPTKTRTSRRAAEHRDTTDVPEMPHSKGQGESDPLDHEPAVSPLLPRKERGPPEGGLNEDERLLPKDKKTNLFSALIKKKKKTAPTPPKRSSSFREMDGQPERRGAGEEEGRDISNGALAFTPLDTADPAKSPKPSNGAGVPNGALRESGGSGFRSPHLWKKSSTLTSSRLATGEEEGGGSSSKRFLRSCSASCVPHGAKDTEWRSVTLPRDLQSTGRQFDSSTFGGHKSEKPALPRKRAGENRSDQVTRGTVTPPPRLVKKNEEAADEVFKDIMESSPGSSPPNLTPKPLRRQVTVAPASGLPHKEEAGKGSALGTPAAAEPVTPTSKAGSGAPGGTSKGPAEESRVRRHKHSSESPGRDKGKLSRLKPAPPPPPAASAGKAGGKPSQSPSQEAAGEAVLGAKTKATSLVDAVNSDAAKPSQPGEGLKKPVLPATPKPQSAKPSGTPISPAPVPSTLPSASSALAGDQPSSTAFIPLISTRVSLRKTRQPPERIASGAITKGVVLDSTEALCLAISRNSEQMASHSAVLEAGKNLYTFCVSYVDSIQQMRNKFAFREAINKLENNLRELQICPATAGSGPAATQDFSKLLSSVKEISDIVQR
# Sequence of Tyrosine-protein kinase JAK3 (Homo sapiens) (P52333 whole entry, the tested form may be a part): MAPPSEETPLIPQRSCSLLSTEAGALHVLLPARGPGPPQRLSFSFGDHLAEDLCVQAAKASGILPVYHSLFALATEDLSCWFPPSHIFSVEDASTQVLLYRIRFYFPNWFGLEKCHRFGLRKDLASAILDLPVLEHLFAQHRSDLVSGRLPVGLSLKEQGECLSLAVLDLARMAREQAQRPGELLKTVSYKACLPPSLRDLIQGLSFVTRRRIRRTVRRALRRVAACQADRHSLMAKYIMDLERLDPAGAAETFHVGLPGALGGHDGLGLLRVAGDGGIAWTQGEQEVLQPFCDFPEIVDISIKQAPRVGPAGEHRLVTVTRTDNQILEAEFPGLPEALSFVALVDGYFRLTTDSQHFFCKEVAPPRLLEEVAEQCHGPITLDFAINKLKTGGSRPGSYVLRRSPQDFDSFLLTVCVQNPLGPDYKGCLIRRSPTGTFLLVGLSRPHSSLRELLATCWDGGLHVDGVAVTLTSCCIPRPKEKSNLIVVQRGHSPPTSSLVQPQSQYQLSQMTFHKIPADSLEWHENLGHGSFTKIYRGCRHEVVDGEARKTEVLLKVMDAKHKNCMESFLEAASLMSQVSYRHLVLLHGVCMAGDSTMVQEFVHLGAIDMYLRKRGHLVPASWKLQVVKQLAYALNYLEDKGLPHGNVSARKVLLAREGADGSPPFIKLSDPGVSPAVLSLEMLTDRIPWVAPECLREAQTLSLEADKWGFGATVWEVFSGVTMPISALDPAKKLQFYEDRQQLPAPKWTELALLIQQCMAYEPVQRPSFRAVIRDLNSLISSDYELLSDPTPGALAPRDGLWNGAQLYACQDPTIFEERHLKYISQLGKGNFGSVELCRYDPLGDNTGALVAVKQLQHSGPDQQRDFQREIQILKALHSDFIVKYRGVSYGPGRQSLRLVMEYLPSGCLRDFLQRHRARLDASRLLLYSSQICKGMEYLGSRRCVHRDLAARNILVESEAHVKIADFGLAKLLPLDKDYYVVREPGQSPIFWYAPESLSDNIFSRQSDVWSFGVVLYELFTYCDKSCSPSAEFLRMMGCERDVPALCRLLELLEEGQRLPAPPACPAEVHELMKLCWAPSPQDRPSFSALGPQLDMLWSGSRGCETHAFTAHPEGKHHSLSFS
# Sequence of Serine/threonine-protein kinase MARK1 (Homo sapiens) (Q9P0L2 whole entry, looked up, the tested form may be a part): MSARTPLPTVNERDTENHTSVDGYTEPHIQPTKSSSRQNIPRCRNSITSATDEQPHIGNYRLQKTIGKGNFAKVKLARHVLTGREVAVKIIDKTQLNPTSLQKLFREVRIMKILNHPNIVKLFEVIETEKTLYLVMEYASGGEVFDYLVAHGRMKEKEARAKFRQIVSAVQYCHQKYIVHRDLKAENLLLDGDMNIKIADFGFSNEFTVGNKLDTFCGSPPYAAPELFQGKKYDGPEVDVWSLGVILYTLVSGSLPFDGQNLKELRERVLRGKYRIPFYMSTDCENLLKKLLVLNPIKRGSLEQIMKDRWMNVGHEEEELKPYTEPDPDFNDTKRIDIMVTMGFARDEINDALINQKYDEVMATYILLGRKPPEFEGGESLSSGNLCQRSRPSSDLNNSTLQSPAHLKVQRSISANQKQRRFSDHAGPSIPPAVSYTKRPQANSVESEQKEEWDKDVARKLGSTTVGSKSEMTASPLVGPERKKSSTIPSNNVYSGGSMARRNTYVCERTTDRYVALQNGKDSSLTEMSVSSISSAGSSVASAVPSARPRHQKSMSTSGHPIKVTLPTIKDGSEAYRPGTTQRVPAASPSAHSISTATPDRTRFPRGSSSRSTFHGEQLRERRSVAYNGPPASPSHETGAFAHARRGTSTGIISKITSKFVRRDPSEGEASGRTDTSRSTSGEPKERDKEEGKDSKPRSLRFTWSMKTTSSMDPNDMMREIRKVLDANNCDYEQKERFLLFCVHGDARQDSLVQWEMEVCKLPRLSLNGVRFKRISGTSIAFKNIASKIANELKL
# Sequence of Tyrosine-protein kinase ABL2 (Homo sapiens) (P42684 whole entry, the tested form may be a part): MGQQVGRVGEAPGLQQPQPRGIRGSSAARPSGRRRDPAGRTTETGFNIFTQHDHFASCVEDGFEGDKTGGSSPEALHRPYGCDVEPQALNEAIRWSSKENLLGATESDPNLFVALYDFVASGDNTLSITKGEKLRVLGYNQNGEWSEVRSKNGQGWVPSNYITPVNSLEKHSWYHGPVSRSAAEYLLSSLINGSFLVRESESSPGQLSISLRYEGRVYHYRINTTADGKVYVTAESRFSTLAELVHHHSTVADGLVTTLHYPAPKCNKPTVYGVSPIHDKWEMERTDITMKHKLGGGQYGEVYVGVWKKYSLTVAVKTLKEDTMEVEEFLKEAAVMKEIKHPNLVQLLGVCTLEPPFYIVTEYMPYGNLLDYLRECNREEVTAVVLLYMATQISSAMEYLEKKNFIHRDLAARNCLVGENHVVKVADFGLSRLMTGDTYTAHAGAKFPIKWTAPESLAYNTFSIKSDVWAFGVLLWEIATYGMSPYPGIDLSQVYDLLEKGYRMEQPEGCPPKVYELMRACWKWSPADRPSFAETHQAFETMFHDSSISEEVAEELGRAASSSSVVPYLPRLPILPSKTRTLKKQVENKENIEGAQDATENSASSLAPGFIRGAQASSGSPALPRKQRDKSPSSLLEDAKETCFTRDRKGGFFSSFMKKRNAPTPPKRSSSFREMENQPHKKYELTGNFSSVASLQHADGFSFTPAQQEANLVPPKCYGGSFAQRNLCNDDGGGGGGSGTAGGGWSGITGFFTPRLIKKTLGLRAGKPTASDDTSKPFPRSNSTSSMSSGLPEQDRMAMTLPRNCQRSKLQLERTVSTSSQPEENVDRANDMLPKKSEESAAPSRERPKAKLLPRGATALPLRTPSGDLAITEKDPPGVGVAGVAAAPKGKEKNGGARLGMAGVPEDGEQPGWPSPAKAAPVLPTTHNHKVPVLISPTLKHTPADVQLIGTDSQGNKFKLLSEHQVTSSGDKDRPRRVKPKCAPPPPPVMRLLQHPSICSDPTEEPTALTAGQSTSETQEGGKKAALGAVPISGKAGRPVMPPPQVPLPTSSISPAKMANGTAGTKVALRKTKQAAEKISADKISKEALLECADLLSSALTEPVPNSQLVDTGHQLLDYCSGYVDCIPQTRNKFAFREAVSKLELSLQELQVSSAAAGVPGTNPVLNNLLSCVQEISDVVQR
# Sequence of Tyrosine-protein kinase ABL1 (Homo sapiens), P00519 [F317I] (P00519 whole entry F317I, the tested form may be a part): as the sequence (P00519 whole entry, the tested form may be a part) above, with F317I counted along it
# Sequence of Dual specificity mitogen-activated protein kinase kinase 3 (Homo sapiens) (P46734 whole entry, the tested form may be a part): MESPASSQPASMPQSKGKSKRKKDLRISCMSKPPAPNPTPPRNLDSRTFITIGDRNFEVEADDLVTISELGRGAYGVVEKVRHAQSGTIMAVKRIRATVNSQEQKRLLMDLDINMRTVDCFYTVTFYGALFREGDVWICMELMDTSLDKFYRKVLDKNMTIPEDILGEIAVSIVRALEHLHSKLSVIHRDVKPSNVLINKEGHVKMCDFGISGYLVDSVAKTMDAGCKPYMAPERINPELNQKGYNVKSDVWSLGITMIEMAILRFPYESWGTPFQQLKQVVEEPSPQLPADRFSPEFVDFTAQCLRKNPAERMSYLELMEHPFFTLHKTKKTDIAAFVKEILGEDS
# Sequence of Cyclin-dependent kinase 2 homolog (Plasmodium falciparum (isolate 3D7)) (P61075 whole entry, the tested form may be a part, canonical isoform): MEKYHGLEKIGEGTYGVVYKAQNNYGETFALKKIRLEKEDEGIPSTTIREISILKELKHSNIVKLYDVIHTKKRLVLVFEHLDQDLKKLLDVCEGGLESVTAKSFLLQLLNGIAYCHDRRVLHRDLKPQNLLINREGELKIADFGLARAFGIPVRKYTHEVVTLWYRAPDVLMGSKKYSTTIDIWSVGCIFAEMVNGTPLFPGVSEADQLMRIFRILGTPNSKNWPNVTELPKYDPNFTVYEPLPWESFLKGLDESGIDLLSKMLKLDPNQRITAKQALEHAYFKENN
smiles,measurement,setting,value
O=C(Nc1cccc([C@@H]2CN(c3ncnc4[nH]ccc34)CCN2CCO)c1)Nc1c(F)cccc1N1CCCC1,inhibition,[1],100%
same,inhibition,[2],61%
same,inhibition,[3],97%
same,inhibition,[4],56%
same,inhibition,[5],100%
same,inhibition,[6],100%
same,inhibition,[7],4.3%
same,inhibition,[8],97%
same,inhibition,[9],77%
same,inhibition,[10],92%
same,inhibition,[11],100%
same,inhibition,[12],100%
same,inhibition,[13],83%
same,inhibition,[14],100%
same,inhibition,[15],64%
same,inhibition,[16],55%
same,inhibition,[17],65%
same,solubility kinetic,[18],94 µg/mL
O=C(Nc1cccc([C@H]2CCCN(c3ncnc4[nH]ccc34)C2)c1)Nc1ccccc1N1CCCC1,inhibition,[19],67%
same,inhibition,[20],96%
same,inhibition,[21],7.1%
same,inhibition,[22],100%
same,inhibition,[23],15%
same,inhibition,[24],100%
same,inhibition,[25],0%
same,inhibition,[26],90%
same,inhibition,[27],52%
